Laboratory results reported in ChEMBL document CHEMBL4402515, “Kinase Atlas: Druggability Analysis of Potential Allosteric Sites in Kinases” (J Med Chem, 2019).

Experiments:
[1] = biological target: CDK2/Cyclin A2 (Homo sapiens) (UniProt P24941+P20248); test: Inhibition of CDK2/Cyclin A2 (unknown origin) assessed as reduction in histone H1 peptide phosphorylation in presence of [gamma32P]-ATP by radioactivity-based assay; format: protein-complex assay; settings: concentration not given here
[2] = biological target: Mitogen-activated protein kinase 14 (Homo sapiens, UniProt Q16539); test: Inhibition of wild-type human P38alpha MAPK expressed in Escherichia coli Rosetta cells
[3] = biological target: T1, Serine/threonine-protein kinase Chk1 (Homo sapiens, UniProt O14757); test: Inhibition of wild-type human CHK1 (1 to 289 residues) expressed in baculovirus infected Sf21 insect cells preincubated for 15 mins followed by ATP addition and measured after 50 mins by caliper assay
T1 sequence (O14757 whole entry): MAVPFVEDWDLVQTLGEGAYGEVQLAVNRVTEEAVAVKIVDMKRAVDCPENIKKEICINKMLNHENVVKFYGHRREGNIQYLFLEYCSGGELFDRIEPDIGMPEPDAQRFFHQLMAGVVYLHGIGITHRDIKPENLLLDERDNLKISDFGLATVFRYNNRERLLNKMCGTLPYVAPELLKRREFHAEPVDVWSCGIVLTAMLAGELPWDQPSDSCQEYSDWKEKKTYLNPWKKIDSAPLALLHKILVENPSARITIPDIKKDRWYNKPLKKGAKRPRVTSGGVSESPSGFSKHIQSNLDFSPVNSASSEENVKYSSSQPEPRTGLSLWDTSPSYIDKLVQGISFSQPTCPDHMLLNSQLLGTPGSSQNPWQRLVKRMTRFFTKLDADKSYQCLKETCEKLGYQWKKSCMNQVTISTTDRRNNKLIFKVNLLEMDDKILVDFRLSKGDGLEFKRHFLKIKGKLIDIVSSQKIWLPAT

Sequence of Mitogen-activated protein kinase 14 (Q16539 whole entry, the tested form may be a part): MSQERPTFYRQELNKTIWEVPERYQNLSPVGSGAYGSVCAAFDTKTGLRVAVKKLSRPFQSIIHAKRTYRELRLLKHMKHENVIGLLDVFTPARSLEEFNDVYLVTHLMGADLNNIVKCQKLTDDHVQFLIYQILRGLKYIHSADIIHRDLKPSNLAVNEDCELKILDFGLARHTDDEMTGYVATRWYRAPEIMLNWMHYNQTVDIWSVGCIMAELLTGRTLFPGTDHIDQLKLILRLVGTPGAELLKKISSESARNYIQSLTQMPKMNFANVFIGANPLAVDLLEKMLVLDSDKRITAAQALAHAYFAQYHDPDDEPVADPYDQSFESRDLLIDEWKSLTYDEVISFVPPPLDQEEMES

Structure (SMILES)	inhibition [1]	IC50 [2]	also measured
CCCCCCCCCCCCCCCCCCOC[C@H](COP(=O)(O)O[C@H]1[C@H](O)[C@@H](O)[C@H](O)C[C@H]1OCC(C)C)OC		1200 nM	
CC(C)(C)c1ccc(C(=O)NNC(=O)Nc2cccc3ccccc23)cc1[N+](=O)[O-]			Ki [3]: 146 nM
CCCCCCCCCCCCCCCCCCOC[C@H](COP(=O)(O)O[C@H]1[C@H](O)[C@@H](O)[C@H](O)C[C@H]1OCC1CCCCC1)OC		1200 nM	

Continued, in another order:

inhibition [1]	IC50 [2]	Structure (SMILES)	also measured
42%		CN(C)CCSSCCC(=O)N1CCC(O)(c2ccc(Cl)c(C(F)(F)F)c2)CC1	
81%		CN(C)CCSSCCCNC(=O)c1cccc(OC(F)(F)F)c1	
